{
  "source": "paper PMC5947317",
  "about": "(ACS chemical biology, 2017)",
  "key": {"[1]": {"target": "T1, HA-UCHL1 (Homo sapiens, UniProt P09936)", "T1 sequence (P09936 1-223)": "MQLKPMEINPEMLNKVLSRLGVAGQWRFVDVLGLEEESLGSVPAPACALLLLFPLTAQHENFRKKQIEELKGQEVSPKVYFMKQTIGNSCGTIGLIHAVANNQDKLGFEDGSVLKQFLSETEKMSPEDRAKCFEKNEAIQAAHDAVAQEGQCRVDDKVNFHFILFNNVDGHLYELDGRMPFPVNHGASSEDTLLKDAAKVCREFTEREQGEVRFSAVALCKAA", "assay": "AlphaLISA DUB assay miniaturized to 1536-well format", "type": "biochemical"}, "[2]": {"target": "T2, UCHL1 (Homo sapiens, UniProt P09936)", "T2 sequence (P09936 1-223)": "T1 sequence (P09936 1-223)", "assay": "Ub-AMC assay with recombinant UCHL1", "type": "biochemical", "settings": "for difference in IC50 value (selectivity for UCHL1): versus UCHL3, UCHL5, USP2 catalytic core"}, "[3]": {"target": "T2, UCHL1", "assay": "Rapid dilution reversibility assay", "type": "biochemical", "settings": "incubated at ten times IC50, diluted 100-fold; normalized to DMSO"}, "[4]": {"target": "T3, UCHL3 (Homo sapiens, UniProt P15374)", "T3 sequence (P15374 1-230)": "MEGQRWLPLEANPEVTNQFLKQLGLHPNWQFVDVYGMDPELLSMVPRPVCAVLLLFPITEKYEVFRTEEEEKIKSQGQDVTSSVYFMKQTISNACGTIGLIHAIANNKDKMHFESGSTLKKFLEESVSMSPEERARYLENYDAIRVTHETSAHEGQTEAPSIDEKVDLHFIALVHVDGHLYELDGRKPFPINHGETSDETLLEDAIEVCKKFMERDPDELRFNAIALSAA", "assay": "Ub-AMC selectivity assay, UCHL3", "type": "biochemical", "settings": "114 μM"}, "[5]": {"target": "T4, UCHL5 (Homo sapiens, UniProt Q9Y5K5)", "T4 sequence (Q9Y5K5 1-329)": "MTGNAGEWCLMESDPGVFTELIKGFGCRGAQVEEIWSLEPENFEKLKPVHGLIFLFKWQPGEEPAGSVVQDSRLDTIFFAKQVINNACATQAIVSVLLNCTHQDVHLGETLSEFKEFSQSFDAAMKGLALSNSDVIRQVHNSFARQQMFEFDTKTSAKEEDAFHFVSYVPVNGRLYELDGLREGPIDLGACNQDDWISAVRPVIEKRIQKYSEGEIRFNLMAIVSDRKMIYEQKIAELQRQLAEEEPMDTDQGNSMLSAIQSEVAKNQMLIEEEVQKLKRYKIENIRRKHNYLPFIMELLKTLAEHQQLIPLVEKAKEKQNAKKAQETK", "assay": "Ub-AMC selectivity assay, UCHL5", "type": "biochemical", "settings": "114 μM"}, "[6]": {"target": "T5, USP2 catalytic core (Homo sapiens, UniProt O75604)", "T5 sequence (O75604 267-599 limits assumed)": "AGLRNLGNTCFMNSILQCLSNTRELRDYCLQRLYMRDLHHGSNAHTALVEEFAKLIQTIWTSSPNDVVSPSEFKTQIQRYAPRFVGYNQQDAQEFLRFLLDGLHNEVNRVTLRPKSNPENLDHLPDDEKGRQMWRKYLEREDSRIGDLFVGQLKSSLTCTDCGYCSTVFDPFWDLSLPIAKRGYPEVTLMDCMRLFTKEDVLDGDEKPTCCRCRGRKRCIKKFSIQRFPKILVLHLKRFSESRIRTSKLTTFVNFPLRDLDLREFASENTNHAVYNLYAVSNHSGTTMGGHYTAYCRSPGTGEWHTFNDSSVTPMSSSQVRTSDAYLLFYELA", "assay": "Ub-AMC selectivity assay, USP2 catalytic core", "type": "biochemical", "settings": "114 μM"}, "[7]": {"target": "T6, full length USP15 (Homo sapiens, UniProt Q9Y4E8)", "T6 sequence (Q9Y4E8 1-981)": "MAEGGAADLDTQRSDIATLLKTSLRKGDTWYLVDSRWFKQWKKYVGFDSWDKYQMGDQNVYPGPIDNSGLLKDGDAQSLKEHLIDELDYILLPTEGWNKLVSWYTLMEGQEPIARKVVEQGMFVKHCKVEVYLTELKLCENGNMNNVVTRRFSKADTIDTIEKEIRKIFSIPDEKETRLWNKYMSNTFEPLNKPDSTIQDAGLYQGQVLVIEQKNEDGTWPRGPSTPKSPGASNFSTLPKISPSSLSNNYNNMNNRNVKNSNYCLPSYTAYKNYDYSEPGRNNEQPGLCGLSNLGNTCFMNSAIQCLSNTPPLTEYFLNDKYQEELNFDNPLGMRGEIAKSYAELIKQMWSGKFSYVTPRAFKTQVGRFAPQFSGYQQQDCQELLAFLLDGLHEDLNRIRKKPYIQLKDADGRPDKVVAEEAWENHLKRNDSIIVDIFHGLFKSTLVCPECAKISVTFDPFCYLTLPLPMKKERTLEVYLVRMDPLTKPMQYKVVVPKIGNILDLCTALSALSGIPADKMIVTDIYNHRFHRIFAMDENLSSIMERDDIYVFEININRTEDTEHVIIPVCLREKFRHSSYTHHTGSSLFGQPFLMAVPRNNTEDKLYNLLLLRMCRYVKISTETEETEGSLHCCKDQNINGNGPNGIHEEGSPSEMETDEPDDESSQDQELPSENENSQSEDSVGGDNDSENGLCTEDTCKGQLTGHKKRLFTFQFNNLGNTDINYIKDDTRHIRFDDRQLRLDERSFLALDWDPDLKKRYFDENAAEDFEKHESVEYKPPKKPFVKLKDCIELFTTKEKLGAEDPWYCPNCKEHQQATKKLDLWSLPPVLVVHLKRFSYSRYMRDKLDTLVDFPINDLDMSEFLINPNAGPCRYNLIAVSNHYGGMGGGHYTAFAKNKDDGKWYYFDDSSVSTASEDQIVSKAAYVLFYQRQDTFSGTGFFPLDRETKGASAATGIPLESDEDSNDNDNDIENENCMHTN", "assay": "Ub-AMC selectivity assay, full length USP15", "type": "biochemical", "settings": "114 μM"}, "[8]": {"target": "T1, HA-UCHL1", "assay": "Cell lysate AlphaLISA DUB assay, 384-well format", "type": "biochemical", "settings": "384-well plate format; dose-response"}, "[9]": {"system": "UCHL1", "settings": "cited from earlier work"}, "[10]": {"target": "T1, HA-UCHL1", "settings": "HEK293T cell lysates; Western blot, anti-HA"}, "[11]": {"target": "T7, endogenous UCHL1 (Homo sapiens, UniProt P09936)", "T7 sequence (P09936 1-223)": "T1 sequence (P09936 1-223)", "type": "biochemical", "settings": "100 μM and 20 μM of compound; HEK293T cell lysates"}},
  "note": "Read-outs that look alike come from different tables or passages of the source.",
  "data": [
    {"compound": "COC(=O)C1=CO[C@@H](C)[C@@H]2CN3CCc4c([nH]c5ccc(OC)cc45)[C@@H]3C[C@H]12", "note": "[(-)-aricine]", "values": [
      {"measurement": "IC50", "setting": "[1]; read-out: IC50 determined in the qHTS, qHTS, data not shown", "result": 38.5, "unit": "µM"},
      {"measurement": "IC50", "setting": "[2]; Ub-AMC as substrate", "result": 47.7, "unit": "µM"},
      {"measurement": "recovered UCHL1 activity after rapid dilution", "setting": "[3]", "result": "> 80", "unit": "%"},
      {"measurement": "inhibition at highest inhibitor concentration", "setting": "[4]", "result": "no significant inhibition"},
      {"measurement": "inhibition at highest inhibitor concentration", "setting": "[5]", "result": "no significant inhibition"},
      {"measurement": "inhibition at highest inhibitor concentration", "setting": "[6]", "result": "no significant inhibition"},
      {"measurement": "inhibition at highest inhibitor concentration", "setting": "[7]", "result": "no significant inhibition"}
    ]},
    {"compound": "Cc1cnc(-c2ccccc2C(C)C)nc1NCc1ccc(-n2ccnn2)cc1", "note": "[ML323]", "values": [
      {"measurement": "inhibition in the AlphaLISA assay", "setting": "[8]", "result": "no obvious inhibition"},
      {"measurement": "activity against UCHL1", "setting": "[9]", "result": "inactive"},
      {"measurement": "inhibition of UCHL1 labeling by biotin-UbVMe", "setting": "[10]", "result": "did not inhibit the labeling"}
    ]},
    {"compound": "CCN1C(=O)C=CC1=O", "note": "[NEM, N-ethylmaleimide, reference compound]", "values": [
      {"measurement": "recovered UCHL1 activity after rapid dilution", "setting": "[3]", "result": 3.9, "unit": "%"}
    ]},
    {"compound": "CC(=O)Oc1c2c(c(CC=C(C)C)c3c1C(=O)C1=C[C@@H]4CC5C(C)(C)OC(C/C=C(\\C)C(=O)O)(C4=O)[C@@]15O3)OC(C)(CCC=C(C)C)C=C2", "note": "(some centres unmarked) [acetyl isogambogic acid]", "values": [
      {"measurement": "IC50", "setting": "[1]", "result": 30.6, "unit": "µM"},
      {"measurement": "selectivity among UCHs and USPs tested", "setting": "[2]; UCHL1 versus UCHL3, UCHL5, USP2 catalytic core, USP15, Ub-AMC", "result": "more promiscuous inhibitors"},
      {"measurement": "recovered UCHL1 activity after rapid dilution", "setting": "[3]", "result": "> 80", "unit": "%"},
      {"measurement": "inhibition of endogenous UCHL1 labeling by HA-UbVMe", "setting": "[11]", "result": "stronger inhibition"}
    ]},
    {"compound": "CC1=C(O)C(=O)C=C2C1=CC=C1[C@@]2(C)CC[C@@]2(C)[C@@H]3C[C@](C)(C(=O)O)CC[C@]3(C)CC[C@]12C", "note": "[celastrol]", "values": [
      {"measurement": "IC50", "setting": "[1]", "result": 4.46, "unit": "µM"},
      {"measurement": "difference in IC50 value (selectivity for UCHL1)", "setting": "[2]; USP15, Ub-AMC", "result": "≥ 4", "unit": "fold"},
      {"measurement": "recovered UCHL1 activity after rapid dilution", "setting": "[3]", "result": "> 80", "unit": "%"},
      {"measurement": "inhibition of endogenous UCHL1 labeling by HA-UbVMe", "setting": "[11]", "result": "stronger inhibition"}
    ]},
    {"compound": "O=c1c2cc(O)c(O)cc2oc2cc(O)c([C@@H]3O[C@H](CO)[C@@H](O)[C@H](O)[C@H]3O)c(O)c12", "note": "[mangiferin]", "values": [
      {"measurement": "IC50", "setting": "[1]", "result": 1.12, "unit": "µM"},
      {"measurement": "IC50", "setting": "[2]", "result": 8.9, "unit": "µM"},
      {"measurement": "difference in IC50 value (selectivity for UCHL1)", "setting": "[2]; USP15, Ub-AMC", "result": "≥ 4", "unit": "fold"},
      {"measurement": "recovered UCHL1 activity after rapid dilution", "setting": "[3]", "result": "> 80", "unit": "%"},
      {"measurement": "inhibition of endogenous UCHL1 labeling by HA-UbVMe", "setting": "[11]", "result": "stronger inhibition"}
    ]},
    {"compound": "CO[C@H]1/C=C/O[C@@]2(C)Oc3c(C)c(O)c4c(O)c(c(/C=N/N5CCN(C)CC5)c(O)c4c3C2=O)NC(=O)/C(C)=C\\C=C\\[C@H](C)[C@H](O)[C@@H](C)[C@@H](O)[C@@H](C)[C@H](OC(C)=O)[C@@H]1C", "note": "[rifampicin, reference compound]", "values": [
      {"measurement": "IC50", "setting": "[1]", "result": 38.5, "unit": "µM"},
      {"measurement": "IC50", "setting": "[2]", "result": 19.5, "unit": "µM"}
    ]}
  ]
}
